Data reported in a melting point compilation (Tetko et al.; mined from patent text by program, amines drawn as free bases though some values may be those of a salt).

Row | SMILES | melting point
1 | O=C(CCc1nnc(Nc2ccccc2Cl)o1)NC1CCN(Cc2ccc(F)c(F)c2)CC1 | 162 to 163 °C
2 | COCCn1nc(-c2sc(C(=O)NC(C)C)nc2-c2ccccc2)ccc1=O | 172 °C
3 | CCn1nc(Cc2ccc(N)cc2)oc1=O | 88 to 89 °C
4 | CC1(C)OC(=O)Nc2ccc(-c3cccc(C#C[Si](C)(C)C)c3)cc21 | 240 to 242 °C
5 | CC(C)CCn1cc(C(=O)Nc2nccs2)c2ccc(Cl)cc21 | 179 to 180 °C
6 | O=C(Nc1ccc(Cl)nc1)N1CCc2ccccc2CC1 | 170 to 172 °C
7 | N#CC(C#N)=C(NC1CCN(Cc2ccccc2)CC1)NC1CCN(Cc2ccccc2)CC1 | 147 to 148 °C
8 | COc1cc(C=CC=O)ccc1OC(C)=O | 83 to 86 °C
9 | O=c1c2c(Cc3ccc(O)cc3)n[nH]c2c2cccnc2n1-c1ccccc1 | 316 to 317 °C
10 | O=S(=O)(F)C=CNc1ccc(Cl)cc1 | 61 to 63 °C
11 | Cc1ccc(C(=O)Nc2cc(-n3cncc3C)cc(C(F)(F)F)c2)cc1Nc1nccc(-c2cccnc2)n1 | 231 to 233 °C
12 | CC1(O)CN(c2ccc([N+](=O)[O-])cc2F)C1 | 109 to 110 °C
13 | O=c1c2ncn(COCCO)c2nc2[nH]c(-c3ccc(Cl)s3)cn12 | 226 to 228 °C
14 | O=C(O)c1cccc(-c2cccn3c(=O)n(Cc4cccc(C(F)(F)F)c4)nc23)c1 | 218 to 222 °C
15 | O=C(c1cccc(Cl)c1)N1CCc2cc(S(=O)(=O)N3CC(c4ccccc4)NC3=O)ccc21 (centres undefined) | 132 to 136 °C
16 | CC(=O)c1ccc(NS(C)(=O)=O)c(Oc2ccccc2F)c1 | 92 to 94 °C
17 | NC1CCc2cc(Cl)ccc2NC1=O (centres undefined) | 170 to 171 °C
18 | CC(Nc1ccc(Oc2ccccc2)cc1)C(=O)O (centres undefined) | 160 °C
19 | O=C(O)COc1ccc(CCC(=O)c2ccc(-c3ccc(C(F)(F)F)cc3)s2)c(Cl)c1Cl | 217 to 219 °C
20 | CCOC(=O)c1nn(C)cc1-c1ccccc1 | 145 °C
21 | CC(C)OC(=O)C(C)Oc1ncn(-c2cccc(C(F)(F)F)c2)n1 (centres undefined) | 97 to 99 °C
22 | Cc1nc2cccc(C(F)(F)F)c2c(=O)n1C1CCC(=O)NC1=O (centres undefined) | 268 to 270 °C
23 | CN(C)c1ccc2c(c1)C(=O)CC(c1ccc(OCc3ccccc3)cc1)=N2 | 283 to 285 °C
24 | CC1(C)C=CC=CC1NCC1=NCCN1 (centres undefined) | 80 to 82 °C

Row | SMILES | melting point
25 | COCOc1ccc(-n2c(=O)c3c(CN(C)Cc4ccccc4)c(-c4ccc(NC(=O)NOC)cc4)sc3n(Cc3c(F)cccc3F)c2=O)cc1 | 189 to 191 °C
26 | O=[N+]([O-])c1cnc(NCC(O)CO)cn1 (centres undefined) | 185 to 187 °C
27 | COc1ccc(C(=CF)C(N)C(=O)O)cc1O (centres undefined) | 214 °C
28 | O=C(C#Cc1ccc(C(F)(F)F)cc1Cl)Nc1ccc2oc(CN3CCCC3)nc2c1 | 218 to 223 °C
29 | CCCc1nc(N(C)c2ccccc2)n2ncc(C(O)c3ccccc3Cl)c2n1 (centres undefined) | 153 to 155 °C
30 | Oc1ccc(F)c2c1C[C@@H](N(C1CCC1)C1CCC1)CO2 | 170 to 172 °C
31 | CCOC(=O)Cc1ccc(-c2nc(COc3ccc(C=O)cc3OC)c(C)o2)cc1 | 151 to 152 °C
32 | COc1nccc(-c2c(-c3ccc(F)cc3)ncn2[C@H]2CC[C@H](O)CC2)n1 | 188 to 190 °C
33 | CCN(CC)C(=O)Nc1ccc(S(=O)(=O)N2C(=O)C(NCCCC(N)=O)(c3ccccc3Cl)c3cc(Cl)ccc32)cc1 (centres undefined) | 192 °C
34 | C#CCOc1cc(-c2ncnc(C(F)(F)F)c2Cl)c(F)cc1Cl | 112 to 113 °C
35 | COC(=O)Cc1ccc(Sc2ccccc2C(=O)O)c([N+](=O)[O-])c1 | 135 to 136 °C
36 | Clc1ccc2c(C3=CCNCC3)c[nH]c2c1 | 181 to 185 °C
37 | CCc1c(C(=O)O)ccc(OCc2ccccc2)c1Cl | 208 to 210 °C
38 | CCOC(=O)C1CC(O)c2cc3c(cc2C1c1cc(OC)c(OC)c(OC)c1)OCO3 (centres undefined) | 151 to 152 °C
39 | O=C(O)CCc1cc2cc(C(=O)c3ccccc3)ccc2n1S(=O)(=O)c1ccccc1 | 138 °C
40 | COc1cc(Nc2nccc(-c3ccc[nH]3)n2)cc(OC)c1OC | 150 °C
41 | COC(=O)CCCOc1cc([N+](=O)[O-])c(COc2ccccc2)cc1OC | 96 to 98 °C
42 | Cn1c(COc2nc(CCC(=O)O)oc2-c2ccccc2)nc2ccccc21 | 222 to 224 °C
43 | O=[N+]([O-])C(CN1CCN(c2ccccc2)CC1)c1ccccc1 (centres undefined) | 76 °C
44 | CCCNc1nc(C)nc2c1nnn2-c1ccc(C(C)C)cc1Br | 156 to 157 °C
45 | CC(=O)Nc1ccc(S(=O)(=O)Nc2ccn(C3CCCC3)c(=O)n2)cc1 | 219 to 228 °C
46 | COc1ccc(NCCCCNC(C)=O)c2c1C(=O)c1ccccc1C2=O | 151 to 153 °C
47 | COCN1C(C)=C(C(=O)OCOC(=O)C(C)(C)C)C(c2ccccc2)C(C(=O)OCOC(=O)C(C)(C)C)=C1C | 89 to 90 °C

Next, values leading:

Row | melting point | SMILES
48 | 109 to 110 °C | O=C1CCN(Cc2ccccc2O)CC1C(c1ccccc1)c1ccccc1 (centres undefined)
49 | 75 to 80 °C | CCc1cc(C(=O)c2ccccc2Cl)c(-n2c(CNC(=O)c3ccc(Cl)c(Cl)c3)nnc2C(F)(F)F)s1
50 | 135 °C | Cc1c(CO)c2ccc(OCCCN3CCN(Cc4ccc(Cl)cc4)CC3)cc2oc1=O
51 | 191 to 192 °C | NC(=O)c1nnn(Cc2ccccc2)c1NC(=O)c1ccccc1
52 | 177 to 179 °C | CC(=O)NCC1CN(c2cc(F)c(N3CCN(C(=O)OC(C)(C)C)CC3)c(F)c2)C(=O)O1 (centres undefined)
53 | 203 to 206 °C | O=C1Cc2cc(NCc3ccccc3)ccc2N1
54 | 175 to 180 °C | CS(=O)(=O)c1ccc(C(=O)C2C(=O)CCC(S(C)(=O)=O)C2=O)c(Cl)c1 (centres undefined)
55 | 85 to 97 °C | CNC(=O)c1ccc(Nc2nc(Nc3cc4c(cc3OC)CCN(C(COC)COC)CC4)ncc2Cl)c(OC)c1
56 | 91 to 92 °C | COC(=O)CCc1cc2cc(C#N)ccc2o1
57 | 94 °C | CNC(=S)NS(=O)(=O)c1cc(CCNC(=O)/C=C/c2cccs2)ccc1OCc1ccccc1
58 | 96 to 98 °C | CCN(CC)c1ccc(-n2c(C(F)(F)F)nn(C)c2=S)cn1
59 | 172 to 176 °C | CCOC(=O)C1=C(COCC(C)(O)Cn2cnnc2)NC(C)=C(C(=O)OC)C1c1cccc(Cl)c1Cl (centres undefined)
60 | 152 to 153 °C | CC(=S)NCC1CC(c2ccc(-n3cccc3)c(F)c2)=NO1 (single isomer, unassigned; (-))
61 | 152 to 153 °C | CCCC(OC(=O)c1ccncc1)C(=O)O (racemic)
62 | 114 to 115 °C | O=C(CNC(=O)C1CCCCC1)c1ccccc1
63 | 284 to 285 °C | Cn1nc2c(-c3ccc(Cl)cc3Cl)cccc2c1C(=O)c1ncn[nH]1
64 | 243 to 268 °C | CCCC1OCC(C)n2c1nc1c(N)nc3ccccc3c12 (centres undefined)
65 | 148 to 151 °C | COC(=O)C(=CNc1ccc(O)cc1C)C(=O)C=CC1=CCCC1
66 | 127 °C | COc1cccc(Cn2c(-c3cc(OC)c(OC)c(OC)c3)nc3ccccc32)c1
67 | 120 to 121 °C | N#CSc1ccc(N)c(C#N)c1
68 | > 300 °C | CN(C)c1ccc(-c2c(O)c3ccc(Cl)cc3[nH]c2=O)cc1
69 | 314 to 316 °C | O=c1[nH]c2cc(Cl)cc(Cl)c2c(=O)n1Cc1ccc(I)cc1
